From ChEMBL document CHEMBL5634112, “Synthesis and biological evaluation of fluoroquinolones containing a pyridoxine derivatives moiety” (Eur J Med Chem, 2023)
The source made the active and inactive calls. The calls are words filed in the database; no cut-off is given here.

Columns and labels:
Bacillus subtilis = experiment: Antibacterial activity against Bacillus subtilis 168 assessed as reduction in microbial growth incubated for 24 hrs by broth microdilution method; assay type: functional
Micrococcus luteus = experiment: Antibacterial activity against clinical isolate Micrococcus luteus assessed as reduction in microbial growth incubated for 24 hrs by broth microdilution method; assay type: functional
DNA gyrase [1] = target: T1, DNA gyrase (Staphylococcus aureus, UniProt P0A0K8+P20831); experiment: Inhibition of Staphylococcus aureus DNA gyrase using supercoiled pBR322 DNA as substrate incubated for 60 mins by ethidium bromide staining based agarose gel electrophoresis method; assay type: protein-complex assay
[2] = Toxicity in po dosed rat assessed as lethal dose; assay type: organism-based; settings: in vivo
[3] = Toxicity in F1 C57Bl6 x CBA mouse assessed as kidney darkening at 125 mg/kg, po after 14 days; assay type: organism-based; settings: in vivo, 336 h, time 14 day
Staphylococcus aureus [4] = experiment: Antibacterial activity against clinical isolate Staphylococcus aureus 4721 assessed as reduction in microbial growth incubated for 24 hrs by broth microdilution method; assay type: functional
[5] = Cytotoxicity against human CHL assessed as reduction in cell viability incubated for 72 hrs by MTT assay; assay type: toxicity, cell-based; settings: CHL cells
[6] = Toxicity in male rat assessed as mortality at 2000 mg/kg, po; assay type: organism-based; settings: in vivo
[7] = Toxicity in male F1 C57Bl6 x CBA mouse assessed as mortality at 125 mg/kg, po; assay type: organism-based; settings: in vivo
[8] = Toxicity in po dosed male F1 C57Bl6 x CBA mouse assessed as lethal dose; assay type: organism-based; settings: in vivo
Staphylococcus aureus [9] = experiment: Antibacterial activity against clinical isolate Staphylococcus aureus 1812 assessed as reduction in microbial growth incubated for 24 hrs by broth microdilution method; assay type: functional
Klebsiella aerogenes = experiment: Antibacterial activity against clinical isolate Enterobacter aerogenes NKC 8 assessed as reduction in microbial growth incubated for 24 hrs by broth microdilution method; assay type: functional
[10] = Toxicity in rat assessed as kidney darkening at 2000 mg/kg, po after 14 days; assay type: organism-based; settings: in vivo, 336 h, time 14 day
Staphylococcus aureus [11] = experiment: Antibacterial activity against clinical isolate methicillin resistant Staphylococcus aureus 4771 assessed as reduction in microbial growth incubated for 24 hrs by broth microdilution method; assay type: functional
Staphylococcus aureus [12] = experiment: Antibacterial activity against methicillin sensitive Staphylococcus aureus ATCC 29213 assessed as reduction in microbial growth incubated for 24 hrs by broth microdilution method; assay type: functional
[13] = Toxicity in po dosed female F1 C57Bl6 x CBA mouse assessed as lethal dose; assay type: organism-based; settings: in vivo
[14] = Toxicity in female F1 C57Bl6 x CBA mouse assessed as mortality at 1000 mg/kg, po; assay type: organism-based; settings: in vivo
[15] = Toxicity in F1 C57Bl6 x CBA mouse assessed as liver darkening at 125 mg/kg, po after 14 days; assay type: organism-based; settings: in vivo, 336 h, time 14 day
Pseudomonas aeruginosa [16] = experiment: Antibacterial activity against Pseudomonas aeruginosa ATCC 27853 assessed as reduction in microbial growth incubated for 24 hrs by broth microdilution method; assay type: functional
Cedecea davisae = experiment: Antibacterial activity against clinical isolate Cedecea davisae 1813 assessed as reduction in microbial growth incubated for 24 hrs by broth microdilution method; assay type: functional
[17] = Toxicity in F1 C57Bl6 x CBA mouse assessed as mortality at 1000 to 2000 mg/kg, po relative to control; assay type: organism-based; settings: in vivo, dose 1000-2000 mg/kg
[18] = test system: Staphylococcus haemolyticus; experiment: Antibacterial activity against clinical isolate Staphylococcus haemolyticus NKC 31/2 assessed as reduction in microbial growth incubated for 24 hrs by broth microdilution method; assay type: functional
[19] = Toxicity in F1 C57Bl6 x CBA mouse assessed as mortality at […] 125 to 500 mg/kg, po relative to control; assay type: organism-based; settings: in vivo, at 125 to 500 mg/kg, dose 125-500 mg/kg
[20] = test system: Staphylococcus auricularis; experiment: Antibacterial activity against clinical isolate Staphylococcus auricularis NKC 7 assessed as reduction in microbial growth incubated for 24 hrs by broth microdilution method; assay type: functional
[21] = Toxicity in male F1 C57Bl6 x CBA mouse assessed as mortality at 1000 to 2000 mg/kg, po; assay type: organism-based; settings: in vivo, dose 1000-2000 mg/kg
Topoisomerase IV = Topoisomerase IV (Staphylococcus aureus, UniProt P0C1S7+P0C1U9); experiment: Inhibition of Staphylococcus aureus topoisomerase-IV assessed as reduction in decatenation using kinetoplast DNA as substrate incubated for 30 mins by ethidium bromide staining based agarose gel electrophoresis method; assay type: protein-complex assay
[22] = Toxicity in female F1 C57Bl6 x CBA mouse assessed as mortality at 125 mg/kg, po; assay type: organism-based; settings: in vivo
Enterococcus faecalis = experiment: Antibacterial activity against clinical isolate Enterococcus faecalis 1465 assessed as reduction in microbial growth incubated for 24 hrs by broth microdilution method; assay type: functional
[23] = test system: Staphylococcus epidermidis; experiment: Antibacterial activity against clinical isolate Staphylococcus epidermidis NKC 37/1 assessed as reduction in microbial growth incubated for 24 hrs by broth microdilution method; assay type: functional
[24] = Genotoxicity in Salmonella typhimurium TA98 by Ames test; assay type: toxicity; settings: salmonella enterica subsp. enterica serovar typhimurium
Klebsiella pneumoniae = experiment: Antibacterial activity against clinical isolate Klebsiella pneumoniae 1678 assessed as reduction in microbial growth incubated for 24 hrs by broth microdilution method; assay type: functional
Escherichia coli [25] = experiment: Antibacterial activity against Escherichia coli ATCC 25922 assessed as reduction in microbial growth incubated for 24 hrs by broth microdilution method; assay type: functional
Escherichia coli [26] = experiment: Antibacterial activity against clinical isolate Escherichia coli NKC 1 assessed as reduction in microbial growth incubated for 24 hrs by broth microdilution method; assay type: functional
DNA gyrase [27] = target: T1, DNA gyrase; experiment: Inhibition of Staphylococcus aureus DNA gyrase using relaxed pBR322 DNA as substrate incubated for 30 mins by ethidium bromide staining based agarose gel electrophoresis method; assay type: protein-complex assay
[28] = Toxicity in rat assessed as liver darkening at 2000 mg/kg, po after 14 days; assay type: organism-based; settings: in vivo, 336 h, time 14 day
[29] = Genotoxicity in Salmonella typhimurium TA100 by Ames test; assay type: toxicity; settings: salmonella enterica subsp. enterica serovar typhimurium
[30] = test system: Staphylococcus epidermidis; experiment: Antibacterial activity against clinical isolate Staphylococcus epidermidis assessed as reduction in microbial growth incubated for 24 hrs by broth microdilution method; assay type: functional
[31] = test system: Staphylococcus haemolyticus; experiment: Antibacterial activity against clinical isolate Staphylococcus haemolyticus 1464 assessed as reduction in microbial growth incubated for 24 hrs by broth microdilution method; assay type: functional
[32] = Cytotoxicity against human MSC assessed as reduction in cell viability incubated for 72 hrs by MTT assay; assay type: toxicity, cell-based; settings: MSC cells
Pseudomonas aeruginosa [33] = experiment: Antibacterial activity against clinical isolate Pseudomonas aeruginosa NKC 17 assessed as reduction in microbial growth incubated for 24 hrs by broth microdilution method; assay type: functional
[34] = Cytotoxicity against human HSF assessed as reduction in cell viability incubated for 72 hrs by MTT assay; assay type: toxicity, cell-based; settings: HSF cells
[35] = Genotoxicity in Salmonella typhimurium TA102 by Ames test; assay type: toxicity; settings: salmonella enterica subsp. enterica serovar typhimurium
Salmonella typhimurium = experiment: Antibacterial activity against Salmonella typhimurium TA100 assessed as reduction in microbial growth incubated for 24 hrs by broth microdilution method; assay type: functional, Salmonella enterica subsp. enterica serovar Typhimurium; settings: Salmonella enterica
Staphylococcus aureus [36] = experiment: In vivo antibacterial activity against Staphylococcus aureus N-10 infected in SHK mouse model of sepsis assessed as animal death at 2 to 4 mg/kg, po measured after 5 to 14 days; assay type: functional, organism-based; settings: dose 2-4 mg/kg, time 5-14 day
Staphylococcus aureus [37] = experiment: In vivo antibacterial activity against Staphylococcus aureus N-10 infected in Po dosed SHK mouse model of sepsis assessed as survival measured after 14 days; assay type: functional; settings: N-10, 336 h, time 14 day
[38] = Toxicity in po dosed F1 C57Bl6 x CBA mouse assessed as lethal dose; assay type: organism-based; settings: in vivo
[39] = Toxicity in female rat assessed as mortality at 2000 mg/kg, po; assay type: organism-based; settings: in vivo
Staphylococcus aureus [40] = experiment: In vivo antibacterial activity against Staphylococcus aureus N-10 infected in SHK mouse model of sepsis assessed as survival at 16 to 18 mg/kg, po measured after 14 days relative to control; assay type: functional, organism-based; settings: dose 16-18 mg/kg, time 14.0 day
Staphylococcus aureus [41] = experiment: Potency index ratio of ciprofloxacin ED50 to test compound ED50 for invivo antibacterial activity against Staphylococcus aureus N-10 infected in Po dosed SHK mouse model of sepsis; assay type: functional
[42] = Toxicity in F1 C57Bl6 x CBA mouse assessed as mortality at 2000 mg/kg, po; assay type: organism-based; settings: in vivo

For COc1c(N2C[C@@H]3CCCN(Cc4cnc(C)c(O)c4C)[C@@H]3C2)c(F)cc2c(=O)c(C(=O)O)cn(C3CC3)c12.Cl.Cl, the MIC (Bacillus subtilis) was 0.5 µg/mL, the MIC (Micrococcus luteus) was 0.5 µg/mL and the IC50 (DNA gyrase [1]) was > 656 µM. The LD50 [2] was > 2000 mg/kg, the Activity [3] was “Non-Toxic” and the MIC (Staphylococcus aureus [4]) was 0.06 µg/mL. The CC50 at 72 h [5] was 8.22 µg/mL, the Activity [6] was “Non-Toxic” and the Activity [7] was “Non-Toxic”. The LD50 [8] was 406 mg/kg, the MIC (Staphylococcus aureus [9]) was 0.25 µg/mL and the MIC (Klebsiella aerogenes) was 16 µg/mL. The Activity [10] was “Toxic”, the MIC (Staphylococcus aureus [11]) was 0.06 µg/mL and the MIC (Staphylococcus aureus [12]) was 0.5 µg/mL. For the same compound, the LD50 [13] was 541 mg/kg, the Activity [14] was “Toxic” and the Activity [15] was “Non-Toxic”. For the same compound, the MIC (Pseudomonas aeruginosa [16]) was 1 µg/mL, the MIC (Cedecea davisae) was 0.03 µg/mL and the mortality [17] was > 80%. The MIC [18] was 8 µg/mL, the mortality [19] was 0% and the MIC [20] was 0.03 µg/mL. For the same compound, the Activity [21] was “Toxic”, the IC50 (Topoisomerase IV) was 26.2 µM and the Activity [22] was “Non-Toxic”. For the same compound, the MIC (Enterococcus faecalis) was 4 µg/mL, the MIC [23] was 0.06 µg/mL and the Activity [24] was “Non-Toxic”. It also gave an MIC (Klebsiella pneumoniae) of 64 µg/mL, an MIC (Escherichia coli [25]) of 2 µg/mL and an MIC (Escherichia coli [26]) of 2 µg/mL. The IC50 (DNA gyrase [27]) was 85.3 µM, the Activity [28] was “Toxic” and the Activity [29] was “Non-Toxic”. The MIC [30] was 0.5 µg/mL, the MIC [31] was 0.06 µg/mL and the CC50 at 72 h [32] was 12.7 µg/mL. The MIC (Pseudomonas aeruginosa [33]) was 64 µg/mL, the CC50 at 72 h [34] was 17.6 µg/mL and the Activity [35] was “Non-Toxic”. It also gave an MIC (Salmonella typhimurium) of 1 µg/mL.

For Cc1ncc(CN2CCN(c3cc4c(cc3F)c(=O)c(C(=O)O)cn4C3CC3)CC2)c(CO)c1O.Cl, the Activity (Staphylococcus aureus [36]) was “inactive”, the MIC (Bacillus subtilis) was 2 µg/mL and the MIC (Micrococcus luteus) was 4 µg/mL. For the same compound, the IC50 (DNA gyrase [1]) was 59.7 µM, the LD50 [2] was > 2000 mg/kg and the MIC (Staphylococcus aureus [4]) was 0.5 µg/mL. The CC50 at 72 h [5] was 30.9 µg/mL, the Activity [6] was “Non-Toxic” and the MIC (Staphylococcus aureus [9]) was 1 µg/mL. For the same compound, the ED50 (Staphylococcus aureus [37]) was 7.3 mg/kg, the MIC (Klebsiella aerogenes) was 2 µg/mL and the LD50 [38] was > 2000 mg/kg. For the same compound, the MIC (Staphylococcus aureus [11]) was 1 µg/mL, the MIC (Staphylococcus aureus [12]) was 2 µg/mL and the Activity [39] was “Non-Toxic”. The MIC (Pseudomonas aeruginosa [16]) was > 64 µg/mL, the MIC (Cedecea davisae) was 1 µg/mL and the MIC [18] was 8 µg/mL. The MIC [20] was 0.03 µg/mL, the Activity (Staphylococcus aureus [40]) was “Active” and the IC50 (Topoisomerase IV) was 397 µM. For the same compound, the MIC (Enterococcus faecalis) was 32 µg/mL, the MIC [23] was 0.5 µg/mL and the Activity [24] was “Non-Toxic”. For the same compound, the “Ratio ED50” value (Staphylococcus aureus [41]) was 1.5, the MIC (Klebsiella pneumoniae) was 8 µg/mL and the MIC (Escherichia coli [25]) was 2 µg/mL. For the same compound, the Activity [42] was “Non-Toxic”, the MIC (Escherichia coli [26]) was 0.5 µg/mL and the IC50 (DNA gyrase [27]) was 1460 µM. The Activity [29] was “Non-Toxic”, the MIC [30] was 2 µg/mL and the MIC [31] was 1 µg/mL. The CC50 at 72 h [32] was 40.3 µg/mL, the MIC (Pseudomonas aeruginosa [33]) was 16 µg/mL and the CC50 at 72 h [34] was 34.5 µg/mL. The Activity [35] was “Non-Toxic” and the MIC (Salmonella typhimurium) was 2 µg/mL.
